Source: patent US20250154138A1, “Small Molecule IL-17A Modulators” (BeiGene, Ltd., priority 2022, published 2025)

Experiments:
[1] = target: human IL-17A / human IL-17RA (Homo sapiens (Human), UniProt Q16552); assay: Human IL-17A biochemical assay (HTRF, blocking of IL-17A binding to IL-17RA); details: 0.4 nM IL-17A, 0.3 nM IL-17RA, max compound concentration 10 uM
In short: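 Compounds (10-point, 2.7-fold dilution from 10 uM) preincubated 3 h at RT with 0.4 nM human IL-17A, followed by 1 h with 0.3 nM IL-17RA and 1 h with Tb-cryptate/XL665 antibodies; buffer 20 mM HEPES pH 7.5, 0.1% BSA. Inhibition derived from HTRF fluorescence ratio; IC50 by four-parameter logistic fitting.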

[2] = test system: IL-17-induced GROα secretion from HT-29 cells; assay: GROα release assay in human colorectal adenocarcinoma epithelial cell (HT-29, ELISA); assay type: cell-based; details: Homo sapiens, HT-29, 48 h, 10 ng/mL IL-17A, highest concentration 10 μM, read-out: Cellular assay HT29 cell/CXCL1 IC50
In short: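 IC50 values come from four-parameter fits of GROα levels, quantified by ELISA (450 nm, standard curve) in supernatants. Compounds, 4-fold serially diluted from 10 μM, were mixed 15 min with IL-17A (10 ng/mL final) before 48 h incubation with HT-29 cells at 37°C.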

Sequence of human IL-17A / human IL-17RA (Q16552 24-155): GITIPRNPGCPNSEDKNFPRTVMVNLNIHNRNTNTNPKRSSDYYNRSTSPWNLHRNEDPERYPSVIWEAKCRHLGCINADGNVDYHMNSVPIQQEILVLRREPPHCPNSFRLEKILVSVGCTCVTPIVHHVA

| Structure (SMILES) | IC50 [1] [nM] | IC50 [2] [nM] |
| --- | --- | --- |
| CC[C@@H]1CN(C2(C(=O)NC)Cc3ccc(NC(=O)[C@@H](NC(=O)c4ccnn4C)C(C4CC4)C4CC4)cc3C2)C(=O)N1 (stereo partly drawn) [Example 166, N-((2S)-1,1-dicyclopropyl-3-((2-((R)-4-ethyl-2-oxoimidazolidin-1-yl)-2-(methylcarbamoyl)-2,3-dihydro-1H-inden-5-yl)amino)-3-oxopropan-2-yl)-1-methyl-1H-pyrazole-5-carboxamide] | 169 | 135 |
| COCC1(N2CC3(CC3)CNC2=O)Cc2ccc(NC(=O)[C@@H](NC(=O)c3ccnn3C)C(C3CC3)C3CC3)cc2C1 (stereo partly drawn) [Example 159, N-((2S)-1,1-dicyclopropyl-3-((2-(methoxymethyl)-2-(6-oxo-5,7-diazaspiro[2.5]octan-5-yl)-2,3-dihydro-1H-inden-5-yl)amino)-3-oxopropan-2-yl)-1-methyl-1H-pyrazole-5-carboxamide] | 53.2 | 187 |
| CC(C)n1nccc1C(=O)N[C@H](C(=O)Nc1ccc2c(c1)OC(CN1C[C@@H](C(F)(F)F)NC1=O)C2)C(C1CC1)C1CC1 (stereo partly drawn) [Example 256, N-((2S)-1,1-dicyclopropyl-3-oxo-3-((2-(((S)-2-oxo-4-(trifluoromethyl)imidazolidin-1-yl)methyl)-2,3-dihydrobenzofuran-6-yl)amino)propan-2-yl)-1-isopropyl-1H-pyrazole-5-carboxamide] | 50.2 | 82 |
| CC(C)[C@@H]1CN(C2(C(=O)Nc3ccccc3)Cc3ccc(NC(=O)[C@@H](NC(=O)c4ccnn4C(C)C)C(C4CC4)C4CC4)cc3C2)C(=O)N1 (stereo partly drawn) [Example 235, N-((2S)-1,1-dicyclopropyl-3-((2-((R)-4-isopropyl-2-oxoimidazolidin-1-yl)-2-(phenylcarbamoyl)-2,3-dihydro-1H-inden-5-yl)amino)-3-oxopropan-2-yl)-1-isopropyl-1H-pyrazole-5-carboxamide] | 229 | 214 |
| CC(C1Cc2ccc(NC(=O)[C@@H](NC(=O)c3ccnn3C(C)C)C(C3CC3)C3CC3)cc2O1)N1C[C@@H](C(F)(F)F)NC1=O (stereo partly drawn) [Example 277, N-((2S)-1,1-dicyclopropyl-3-oxo-3-((2-(1-((S)-2-oxo-4-(trifluoromethyl)imidazolidin-1-yl)ethyl)-2,3-dihydrobenzofuran-6-yl)amino)propan-2-yl)-1-isopropyl-1H-pyrazole-5-carboxamide] | 560 | 1280 |
| CNC(=O)C1(N2C[C@@H](C(C)C)NC2=O)Cc2ccc(NC(=O)[C@@H](NC(=O)c3cccnc3)C3CCCCC3)cc2C1 (stereo partly drawn) [Example 58, N-((1S)-1-cyclohexyl-2-((2-((R)-4-isopropyl-2-oxoimidazolidin-1-yl)-2-(methylcarbamoyl)-2,3-dihydro-1H-inden-5-yl)amino)-2-oxoethyl)nicotinamide] | 595 | 1440 |
| CNC(=O)C1(N2C[C@@H](C(C)C)NC2=O)Cc2ccc(NC(=O)C(NC(=O)c3ccnn3C)C3CCc4c(Cl)cccc4C3)cc2C1 (stereo partly drawn) [Example 201, N-(1-(5-chloro-1,2,3,4-tetrahydronaphthalen-2-yl)-2-((2-((R)-4-isopropyl-2-oxoimidazolidin-1-yl)-2-(methylcarbamoyl)-2,3-dihydro-1H-inden-5-yl)amino)-2-oxoethyl)-1-methyl-1H-pyrazole-5-carboxamide] | 6.5 | 39.5 |
| Cc1nonc1C(=O)N[C@H](C(=O)Nc1ccc2c(c1)CC(C(=O)O)(N1CC3(CC3)CNC1=O)C2)C1CCC(F)(F)CC1 (stereo partly drawn) [Example 188, 5-((S)-2-(4,4-difluorocyclohexyl)-2-(4-methyl-1,2,5-oxadiazole-3-carboxamido)acetamido)-2-(6-oxo-5,7-diazaspiro[2.5]octan-5-yl)-2,3-dihydro-1H-indene-2-carboxylic acid] | 44.9 | 450 |
| CC(C)n1nccc1C(=O)N[C@H](C(=O)Nc1ccc2c(c1)CC(N1C[C@@H](C(F)(F)F)NC1=O)C2)C1CCCCC1 (stereo partly drawn) [Example 195, N-((1S)-1-cyclohexyl-2-oxo-2-((2-((S)-2-oxo-4-(trifluoromethyl)imidazolidin-1-yl)-2,3-dihydro-1H-inden-5-yl)amino)ethyl)-1-isopropyl-1H-pyrazole-5-carboxamide] | 128 | 383 |
| CC[C@@H]1CN(C2(C(=O)NC)Cc3cc4nc([C@@H](NC(=O)c5ccnn5C)C5CCCCC5)[nH]c4cc3C2)C(=O)N1 [Example 31, 2-((S)-cyclohexyl(1-methyl-1H-pyrazole-5-carboxamido)methyl)-6-((R)-4-ethyl-2-oxoimidazolidin-1-yl)-N-methyl-1,5,6,7-tetrahydroindeno[5,6-d]imidazole-6-carboxamide] | 203 | 116 |
| Cn1nccc1C(=O)NC(C(=O)Nc1ccc2c(c1)CC(N1C[C@@H](C(F)(F)F)NC1=O)C2)C1Cc2ccc(Cl)cc2C2(CC2)C1 (stereo partly drawn) [Example 224, N-(1-(7′-chloro-3′,4′-dihydro-2′H-spiro[cyclopropane-1,1′-naphthalen]-3′-yl)-2-oxo-2-((2-((S)-2-oxo-4-(trifluoromethyl)imidazolidin-1-yl)-2,3-dihydro-1H-inden-5-yl)amino)ethyl)-1-methyl-1H-pyrazole-5-carboxamide] | 47.8 | 85.1 |
| Cc1conc1C(=O)N[C@H](C(=O)Nc1ccc2c(c1)CC(N1C[C@@H](C(F)(F)F)NC1=O)C2)C(C1CC1)C1CC1 (stereo partly drawn) [Example 239, N-((2S)-1,1-dicyclopropyl-3-oxo-3-((2-((S)-2-oxo-4-(trifluoromethyl)imidazolidin-1-yl)-2,3-dihydro-1H-inden-5-yl)amino)propan-2-yl)-4-methylisoxazole-3-carboxamide] | 977 | 3210 |
| CC(C)[C@@H]1CN(C2(C(=O)NC34CC5CC(CC(C5)C3)C4)Cc3ccc(NC(=O)[C@@H](NC(=O)c4ccnn4C)C4CCCCC4)cc3C2)C(=O)N1 (stereo partly drawn) [Example 155, N-((1S)-2-((2-(((3R,5R)-adamantan-1-yl)carbamoyl)-2-((R)-4-isopropyl-2-oxoimidazolidin-1-yl)-2,3-dihydro-1H-inden-5-yl)amino)-1-cyclohexyl-2-oxoethyl)-1-methyl-1H-pyrazole-5-carboxamide] | 129 | 211 |
| CNC(=O)C1(N2CC(Cc3ccccc3)CNC2=O)Cc2ccc(NC(=O)[C@@H](NC(=O)c3ccnn3C)C3CCCCC3)cc2C1 (stereo partly drawn) [Example 99, N-((1S)-2-((2-(5-benzyl-2-oxotetrahydropyrimidin-1(2H)-yl)-2-(methylcarbamoyl)-2,3-dihydro-1H-inden-5-yl)amino)-1-cyclohexyl-2-oxoethyl)-1-methyl-1H-pyrazole-5-carboxamide] | 278 | 2480 |
| CNC(=O)C1(N2C[C@@H](C(C)C)NC2=O)Cc2ccc(NC(=O)[C@@H](NC(=O)c3cccc(OC(C)C)c3)C3CCCCC3)cc2C1 (stereo partly drawn) [Example 84, 5-((S)-2-cyclohexyl-2-(3-isopropoxybenzamido)acetamido)-2-((R)-4-isopropyl-2-oxoimidazolidin-1-yl)-N-methyl-2,3-dihydro-1H-indene-2-carboxamide] | 37 | 94.4 |
| CNC(=O)C1(N2CC(C(C)(C)C)NC2=O)Cc2ccc(NC(=O)[C@@H](NC(=O)c3ccnn3C)C3CCCCC3)cc2C1 (stereo partly drawn) [Example 44, N-((1S)-2-((2-(4-(tert-butyl)-2-oxoimidazolidin-1-yl)-2-(methylcarbamoyl)-2,3-dihydro-1H-inden-5-yl)amino)-1-cyclohexyl-2-oxoethyl)-1-methyl-1H-pyrazole-5-carboxamide] | 47 | 231 |
| COCC1(N2CC(C(F)(F)F)NC2=O)Cc2ccc(NC(=O)[C@@H](NC(=O)c3nonc3C)C(C3CC3)C3CC3)cc2C1 (stereo partly drawn) [Example 225, N-((2S)-1,1-dicyclopropyl-3-((2-(methoxymethyl)-2-(2-oxo-4-(trifluoromethyl)imidazolidin-1-yl)-2,3-dihydro-1H-inden-5-yl)amino)-3-oxopropan-2-yl)-4-methyl-1,2,5-oxadiazole-3-carboxamide] | 1270 | 2320 |
| CNC(=O)C1(N2C[C@@H](C(C)C)NC2=O)Cc2ccc(NC(=O)[C@@H](NC(=O)c3ccnn3C(C)C)C(C3CC3)C3CC3)cc2C1 (stereo partly drawn) [Example 91, N-((2S)-1,1-dicyclopropyl-3-((2-((R)-4-isopropyl-2-oxoimidazolidin-1-yl)-2-(methylcarbamoyl)-2,3-dihydro-1H-inden-5-yl)amino)-3-oxopropan-2-yl)-1-isopropyl-1H-pyrazole-5-carboxamide] | 71 | 43 |
| CNC(=O)C1(N2C[C@@H](C(C)C)NC2=O)Cc2ccc(NC(=O)[C@@H](NC(=O)c3ccnn3C(C)C)C3CCCCC3)cc2C1 (stereo partly drawn) [Example 59, N-((1S)-1-cyclohexyl-2-((2-((R)-4-isopropyl-2-oxoimidazolidin-1-yl)-2-(methylcarbamoyl)-2,3-dihydro-1H-inden-5-yl)amino)-2-oxoethyl)-1-isopropyl-1H-pyrazole-5-carboxamide] | 93 | 34.5 |
| CNC(=O)C1(N2CC(C(C)C)NC2=O)Cc2ccc(NC(=O)[C@@H](NC(=O)c3nonc3C)C3CCCCC3)cc2C1 (stereo partly drawn) [Example 30, N-((1S)-1-cyclohexyl-2-((2-(4-isopropyl-2-oxoimidazolidin-1-yl)-2-(methylcarbamoyl)-2,3-dihydro-1H-inden-5-yl)amino)-2-oxoethyl)-4-methyl-1,2,5-oxadiazole-3-carboxamide] | 58 | 576 |
| COC(=O)C1(N2CC3(CC3)CNC2=O)Cc2ccc(NC(=O)C(NC(=O)c3ccnn3C)C3CCC(C(C)C)CC3)cc2C1 (stereo not drawn) [Example 148, methyl 5-(2-(4-isopropylcyclohexyl)-2-(1-methyl-1H-pyrazole-5-carboxamido)acetamido)-2-(6-oxo-5,7-diazaspiro[2.5]octan-5-yl)-2,3-dihydro-1H-indene-2-carboxylate] | 62 | 164 |
